Key:
F508del-CFTR = F508del-CFTR (Homo sapiens, UniProt P13569, DEL508-508); experiment: SILAC heavy pulse light-chase assay: ER CFTR folding efficiency in CFBE41o- cells; format: cell-based; details: 2.5-hour chase; 2 μM IDOR-3, 2 μM IDOR-4, 10 μM TEZ, 10 μM ELX, TEZ + ELX 10 μM each
Protocol: Stable isotope labeling using amino acids in cell culture (SILAC technology, Thermo Fisher Scientific) was used. For pulse-chase assays to determine CFTR folding efficiency at the ER, CFBE-F508del-CFTR or CFBE-WT-CFTR were seeded at 100,000 cells per well into a FNC-coated 24-well plate in CFBE growth medium and, the next day, incubated for 24 hours with “SILAC light medium” [arginine- and lysine-free RPMI 1640 #A33823, 84 mg/liter light L-arginine, # 89989, 146 mg/liter light L-lysine, #88429 and 20 mg/liter L-proline, # 89989 (to prevent a potential arginine-proline conversion)] supplemented with 10% dialyzed FBS. Cells were then washed once in PBS (37°C) and incubated for 1 hour with “starvation medium” (arginine-, lysine-free RPMI 1640, and 1% HSA) containing the indicated fixed concentrations of correctors. A 30-min metabolic pulse labeling was then performed by replacing the medium with “SILAC heavy medium” [arginine- and lysine-free RPMI 1640, L-proline (20 mg/liter), heavy L-arginine (84 mg/liter; ^13C6^15N4, #89990), heavy L-lysine (146 mg/liter; ^13C6^15N2, #88209), and 1% HSA] containing correctors. Cells were then washed with PBS and chased in SILAC light medium supplemented with 1% HSA and correctors. This medium was kept for 1, 2.5, 4, and 6 h of chase time followed by cell lysis in RIPA buffer as described above. […]

CFTR = test system: CFTR; parameters: method as in earlier work; details: ref [27] (GLPG-2737); ref [21], [26], [27] (ELX); cited from earlier work

F508del-CFTR, sequence (P13569 with tags, fused parts or gaps DEL508-508): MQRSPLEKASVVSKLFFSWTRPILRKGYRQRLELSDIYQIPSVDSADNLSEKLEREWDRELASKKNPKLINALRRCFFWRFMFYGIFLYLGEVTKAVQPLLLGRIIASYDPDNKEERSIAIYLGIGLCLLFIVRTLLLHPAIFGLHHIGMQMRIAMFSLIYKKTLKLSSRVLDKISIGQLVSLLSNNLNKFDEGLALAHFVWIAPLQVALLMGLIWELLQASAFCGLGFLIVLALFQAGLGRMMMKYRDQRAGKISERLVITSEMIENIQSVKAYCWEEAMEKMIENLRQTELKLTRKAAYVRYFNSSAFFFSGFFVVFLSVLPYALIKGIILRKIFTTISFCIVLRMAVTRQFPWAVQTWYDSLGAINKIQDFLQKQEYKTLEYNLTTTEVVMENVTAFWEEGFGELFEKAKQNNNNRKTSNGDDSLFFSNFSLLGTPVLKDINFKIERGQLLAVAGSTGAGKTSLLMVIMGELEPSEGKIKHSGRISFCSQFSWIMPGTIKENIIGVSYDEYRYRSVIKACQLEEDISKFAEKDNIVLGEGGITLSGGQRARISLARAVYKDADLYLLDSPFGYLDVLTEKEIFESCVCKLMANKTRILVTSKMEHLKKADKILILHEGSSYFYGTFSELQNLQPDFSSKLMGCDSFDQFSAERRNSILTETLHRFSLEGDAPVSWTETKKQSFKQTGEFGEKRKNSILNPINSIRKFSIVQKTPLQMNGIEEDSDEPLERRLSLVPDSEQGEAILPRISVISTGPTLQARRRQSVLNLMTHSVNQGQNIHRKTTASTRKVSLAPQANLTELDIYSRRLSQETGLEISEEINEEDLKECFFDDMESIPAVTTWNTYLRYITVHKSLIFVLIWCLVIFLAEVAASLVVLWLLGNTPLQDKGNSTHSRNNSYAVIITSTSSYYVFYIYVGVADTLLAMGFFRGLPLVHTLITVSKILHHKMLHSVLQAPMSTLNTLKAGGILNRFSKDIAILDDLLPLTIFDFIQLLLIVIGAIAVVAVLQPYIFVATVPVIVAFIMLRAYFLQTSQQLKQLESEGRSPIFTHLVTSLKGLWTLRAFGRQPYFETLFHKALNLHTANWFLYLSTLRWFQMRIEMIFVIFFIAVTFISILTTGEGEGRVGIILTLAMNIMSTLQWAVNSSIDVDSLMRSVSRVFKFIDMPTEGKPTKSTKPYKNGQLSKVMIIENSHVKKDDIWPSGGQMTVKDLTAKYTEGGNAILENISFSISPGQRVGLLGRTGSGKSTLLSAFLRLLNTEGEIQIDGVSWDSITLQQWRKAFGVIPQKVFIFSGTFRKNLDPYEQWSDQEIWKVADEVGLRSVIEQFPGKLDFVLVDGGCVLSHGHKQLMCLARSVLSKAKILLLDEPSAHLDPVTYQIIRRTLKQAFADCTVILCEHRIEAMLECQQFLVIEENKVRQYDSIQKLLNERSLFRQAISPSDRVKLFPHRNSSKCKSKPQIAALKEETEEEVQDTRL

Row | Compound | B-to-C conversion rate (folding efficiency) (F508del-CFTR) | acute effect on CFTR currents (CFTR)
1 | Cc1nn(C)cc1S(=O)(=O)NC(=O)c1ccc(-n2ccc(OCC(C)(C)C(F)(F)F)n2)nc1N1C[C@@H](C)CC1(C)C [ELX, elexacaftor] | 6.7% | copotentiating effects
2 | CC(C)(CO)c1cc2cc(NC(=O)C3(c4ccc5c(c4)OC(F)(F)O5)CC3)c(F)cc2n1C[C@@H](O)CO [TEZ, tezacaftor] | 2.4% | 

Source: publication PMC11801377, “A uniquely efficacious type of CFTR corrector with complementary mode of action” (Science Advances, 2024)
